Results from patent US6878716B1, “Compounds specific to adenosine A1 receptor and uses thereof” (OSI Pharmaceuticals, Inc., priority 1998, dated 2005).
Where two headings read alike, the source gives them in different places.

Tests used:
[1] = molecular target: T1, human A2a receptor subtype (Homo sapiens, UniProt P29274); assay: Adenosine 2a receptor subtype competition radioligand binding ([3H]CGS-21680, HEK293 membranes); details: Table 13, % value; footnote 8: % activity @ 10 μM
T1 construct: expressed in transfected cells; host or cells: HEK-293 (Cadus clone # 5)
T1 sequence (P29274 whole entry): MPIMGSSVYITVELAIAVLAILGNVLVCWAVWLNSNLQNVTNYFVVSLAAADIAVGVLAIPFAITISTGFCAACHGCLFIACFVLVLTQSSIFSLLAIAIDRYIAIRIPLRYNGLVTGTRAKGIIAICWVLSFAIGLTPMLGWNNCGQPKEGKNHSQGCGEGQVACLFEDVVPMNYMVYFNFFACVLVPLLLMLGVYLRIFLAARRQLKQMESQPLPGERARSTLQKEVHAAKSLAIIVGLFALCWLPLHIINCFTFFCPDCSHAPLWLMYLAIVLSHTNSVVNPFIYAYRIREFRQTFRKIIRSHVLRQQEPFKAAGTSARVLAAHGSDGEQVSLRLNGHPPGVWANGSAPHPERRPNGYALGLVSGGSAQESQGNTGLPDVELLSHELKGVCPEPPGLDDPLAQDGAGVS

[2] = molecular target: T2, human A1 receptor subtype (Homo sapiens, UniProt P30542); details: Table 13, % value; footnote 8: % activity @ 10 μM
T2 sequence (P30542 1-326): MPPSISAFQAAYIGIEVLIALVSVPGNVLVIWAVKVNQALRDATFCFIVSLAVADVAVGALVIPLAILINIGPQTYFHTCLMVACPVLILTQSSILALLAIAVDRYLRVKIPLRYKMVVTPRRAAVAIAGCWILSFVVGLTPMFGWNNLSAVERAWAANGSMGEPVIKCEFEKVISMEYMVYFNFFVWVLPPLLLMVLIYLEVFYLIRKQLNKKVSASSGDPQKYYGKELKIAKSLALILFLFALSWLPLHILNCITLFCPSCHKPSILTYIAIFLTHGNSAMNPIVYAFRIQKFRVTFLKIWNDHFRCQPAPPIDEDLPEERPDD

[3] = molecular target: T3, human adenosine A1 receptor (Homo sapiens, UniProt P30542); assay: Yeast β-Galactosidase reporter gene assay, inhibition of NECA-induced activity (strain CY12660)
T3 sequence (P30542 1-326): T2 sequence (P30542 1-326)

[4] = molecular target: T2, human A1 receptor subtype; assay: biochemical
A1 adenosine receptor = molecular target: T4, A1 adenosine receptor (Homo sapiens, UniProt P30542); details: reported value; cited from earlier work
T4 sequence (P30542 1-326): T2 sequence (P30542 1-326)

[5] = read-out: A1 Yeast IC50, Table 10

Row | SMILES | IC50 [3, 5] [µM] | A2a % activity [1] [%] | other results
1 | Cc1[nH]c2nc(-c3ccccc3)nc(NCCNC(=O)C3(N)CC3)c2c1C [Compound 1313] |  | 65 | A1 % activity [2]: 30%
2 | CCC(=O)NCCCNc1nc(-c2ccccc2)nc2[nH]c(C)c(C)c12 [Compound 1012] |  |  | IC50 [3]: 3.46 µM; Ki [4]: 0.234 µM
3 | C[C@H](Cc1ccccc1)Nc1ncnc2c1ncn2[C@@H]1O[C@H](CO)[C@@H](O)[C@H]1O (single isomer, unassigned) [R-PIA, (−)-N6-(2-phenylisopropyl)-adenosine] |  |  | affinity (reported) (A1 adenosine receptor): approximately 50 nM
4 | CNC(=O)NCCCNc1nc(-c2ccccc2)nc2[nH]c(C)c(C)c12 [Compound 1310] |  | 76 | 

Second part, led by results:

Row | IC50 [3, 5] [µM] | SMILES | A2a % activity [1] [%] | other results
5 | > 10 | Cc1[nH]c2nc(-c3ccccc3)nc(NCCNC(=O)CCN)c2c1C [Compound 1009] |  | 
6 | > 10 | Cc1[nH]c2nc(-c3ccccc3)nc(NCCNS(C)(=O)=O)c2c1C [Compound 1007] |  | 
